Measurements reported in patent US20210395239A1 (Hoffmann-La Roche Inc., priority 2018, published 2021).
pIC50: −log10 of the molar value.

Target: T1, human TLR8 (Homo sapiens, UniProt Q9NR97)
T1 construct: host or cells: HEK293 (HEK-Blue hTLR8)
T1 sequence (Q9NR97 27-1041): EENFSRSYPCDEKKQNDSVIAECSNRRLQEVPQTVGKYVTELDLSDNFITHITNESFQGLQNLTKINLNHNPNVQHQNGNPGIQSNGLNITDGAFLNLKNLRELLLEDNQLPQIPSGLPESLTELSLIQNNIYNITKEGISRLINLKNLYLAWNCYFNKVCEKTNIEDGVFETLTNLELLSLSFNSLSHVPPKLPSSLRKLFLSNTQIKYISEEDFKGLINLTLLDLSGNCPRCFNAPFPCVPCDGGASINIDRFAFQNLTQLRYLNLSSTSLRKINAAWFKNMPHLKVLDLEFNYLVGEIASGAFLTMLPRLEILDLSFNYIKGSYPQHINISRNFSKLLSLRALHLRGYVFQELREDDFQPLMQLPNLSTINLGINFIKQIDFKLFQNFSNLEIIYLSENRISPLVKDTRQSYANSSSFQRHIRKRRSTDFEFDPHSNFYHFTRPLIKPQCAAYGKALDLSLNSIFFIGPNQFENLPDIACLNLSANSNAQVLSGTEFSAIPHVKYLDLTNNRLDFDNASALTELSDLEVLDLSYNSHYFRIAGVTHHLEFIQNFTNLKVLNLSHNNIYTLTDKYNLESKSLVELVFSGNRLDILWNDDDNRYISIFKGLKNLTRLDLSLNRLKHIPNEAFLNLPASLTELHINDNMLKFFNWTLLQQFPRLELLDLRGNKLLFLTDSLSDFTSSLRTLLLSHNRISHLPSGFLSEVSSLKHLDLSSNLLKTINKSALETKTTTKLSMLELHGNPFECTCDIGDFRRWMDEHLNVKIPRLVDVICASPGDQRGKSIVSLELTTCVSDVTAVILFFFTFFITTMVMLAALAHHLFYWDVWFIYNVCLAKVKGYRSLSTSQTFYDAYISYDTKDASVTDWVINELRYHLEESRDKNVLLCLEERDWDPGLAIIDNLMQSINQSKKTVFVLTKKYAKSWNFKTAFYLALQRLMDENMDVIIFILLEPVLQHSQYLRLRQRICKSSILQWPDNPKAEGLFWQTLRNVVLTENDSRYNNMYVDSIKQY
Experiment: HEK293-Blue-hTLR-8 cells assay (SEAP reporter, R848 stimulation)
Format: cell-based
Conditions: HEK293-Blue-hTLR8 cells, R848, 20 hrs; read-out: HEK/hTLR8 IC50
Text: HEK293-Blue-hTLR-8 Cells Assay:
A stable HEK293-Blue-hTLR-8 cell line was purchased from InvivoGen (Cat. #: hkb-ht1r8, San Diego, Calif., USA). These cells were originally designed for studying the stimulation of human TLR8 by monitoring the activation of NF-κB. A SEAP (secreted embryonic alkaline phosphatase) reporter gene was placed under the control of the IFN-β minimal promoter fused to five NF-κB and AP-1-binding sites. The SEAP was induced by activating NF-κB and AP-1 via stimulating HEK-Blue hTLR8 cells with TLR8 ligands. Therefore the reporter expression was declined by TLR8 antagonist under the stimulation of a ligand, such as R848, for incubation of 20 hrs. The cell culture supernatant SEAP reporter activity was determined using QUANTI-Blue™ kit (Cat. #: rep-qb1, Invivogen, San Diego, Ca, USA) at a wavelength of 640 nm, a detection medium that turns purple or blue in the presence of alkaline phosphatase.
HEK293-Blue-hTLR8 cells were incubated at a density of 250,000˜450,000 cells/mL in a volume of 170 μL in a 96-well plate in Dulbecco's Modified Eagle's medium (DMEM) containing 4.5 g/L glucose, 50 U/mL penicillin, […], […], 2 mM L-glutamine, 10% (v/v) heat-inactivated fetal bovine serum with addition of 20 μL test compound in a serial dilution in the presence of final DMSO at 1% and 10 μL of 60 uM R848 in above DMEM, perform incubation under 37° C. in a CO2 incubator for 20 hrs. Then 20 μL of the supernatant from each well was incubated with 180 μL Quanti-blue substrate solution at 37° C. for 2 hrs and the absorbance was read at 620˜655 nm using a spectrophotometer. The signaling pathway that TLR8 activation leads to downstream NF-κB activation has been widely accepted, and therefore similar reporter assay was modified for evaluating TLR8 antagonist.

Row | pIC50 | SMILES
1 | 7.89 | [2H]c1ccc2c(N3C[C@H](CN4CCN(c5ncc(N6CC(C)(N)C6)cc5C)CC4)O[C@H](C)C3)ccc(C#N)c2n1 [Example 139, 5-[(2S,6R)-2-[[4-[5-(3-amino-3-methyl-azetidin-1-yl)-3-methyl-2-pyridyl]piperazin-1-yl]methyl]-6-methyl-morpholin-4-yl]-2-deuterio-quinoline-8-carbonitrile]
2 | 7.62 | [2H]c1ccc2c(N3C[C@H](CN4CC(O)(c5ccc(N6CC(C)(N)C6)cc5)C4)O[C@H](C)C3)ccc(C#N)c2n1 [Example 156, 5-[(2S,6R)-2-[[3-[4-(3-amino-3-methyl-azetidin-1-yl)phenyl]-3-hydroxy-azetidin-1-yl]methyl]-6-methyl-morpholin-4-yl]-2-deuterio-quinoline-8-carbonitrile]
3 | 6.93 | C[C@@H]1CN(c2ccc(C#N)n3nccc23)C[C@H](CN2CC(c3ccc(N4CC(C)(N)C4)nc3)C2)O1 [Example 157, 4-[(2S,6R)-2-[[3-[6-(3-amino-3-methyl-azetidin-1-yl)-3-pyridyl]azetidin-1-yl]methyl]-6-methyl-morpholin-4-yl]pyrazolo[1,5-a]pyridine-7-carbonitrile]
4 | 9.00 | CO[C@H]1CN(c2cc(C)nc(N3CCN(C[C@H]4CN(c5ccc(C#N)c6nccnc56)C[C@@H](C)O4)CC3)n2)C[C@H]1N [Example 122, 8-[(2S,6R)-2-[[4-[4-[(3R,4S)-3-amino-4-methoxy-pyrrolidin-1-yl]-6-methyl-pyrimidin-2-yl]piperazin-1-yl]methyl]-6-methyl-morpholin-4-yl]quinoxaline-5-carbonitrile]
5 | 7.52 | CO[C@@H]1CN(c2ccc(C3CN(C[C@H]4CN(c5ccc(C#N)n6ncc(F)c56)C[C@@H](C)O4)C3)cn2)C[C@H]1N [Example 164, 4-[(2S,6R)-2-[[3-[6-[(3R,4R)-3-amino-4-methoxy-pyrrolidin-1-yl]-3-pyridyl]azetidin-1-yl]methyl]-6-methyl-morpholin-4-yl]-3-fluoro-pyrazolo[1,5-a]pyridine-7-carbonitrile]
6 | 8.70 | Cc1cc(N2C[C@@H](N)[C@](C)(O)C2)nc(N2CCN(C[C@H]3CN(c4ccc(C#N)c5nccnc45)C[C@@H](C)O3)CC2)n1 [Example 125, 8-[(2S,6R)-2-[[4-[4-[(3R,4R)-4-amino-3-hydroxy-3-methyl-pyrrolidin-1-yl]-6-methyl-pyrimidin-2-yl]piperazin-1-yl]methyl]-6-methyl-morpholin-4-yl]quinoxaline-5-carbonitrile]
7 | 7.77 | [2H]c1ccc2c(N3C[C@H](CN4CCN(c5cnc(N6CC(C)(N)C6)cc5C)CC4)O[C@H](C)C3)ccc(C#N)c2n1 [Example 133, 5-[(2S,6R)-2-[[4-[6-(3-amino-3-methyl-azetidin-1-yl)-4-methyl-3-pyridyl]piperazin-1-yl]methyl]-6-methyl-morpholin-4-yl]-2-deuterio-quinoline-8-carbonitrile]
8 | 7.80 | [2H]c1ccc2c(N3C[C@H](CN4CCN(c5ccc(N6CC(C)(N)C6)nc5)CC4)O[C@H](C)C3)ccc(C#N)c2n1 [Example 132, 5-[(2S,6R)-2-[[4-[6-(3-amino-3-methyl-azetidin-1-yl)-3-pyridyl]piperazin-1-yl]methyl]-6-methyl-morpholin-4-yl]-2-deuterio-quinoline-8-carbonitrile]
9 | 9.00 | [2H]c1ccc2c(N3C[C@H](CN4CCN(c5nc(C)cc(N6CC(C)(N)C6)n5)CC4)O[C@H](C)C3)ccc(C#N)c2n1 [Example 135, 5-[(2S,6R)-2-[[4-[4-(3-amino-3-methyl-azetidin-1-yl)-6-methyl-pyrimidin-2-yl]piperazin-1-yl]methyl]-6-methyl-morpholin-4-yl]-2-deuterio-quinoline-8-carbonitrile]
10 | 7.77 | C[C@@H]1CN(c2ccc(C#N)c3ncccc23)C[C@H](CN2CC(c3cccc(N4CCNCC4)c3)C2)O1 [Example 4, 5-[(2R,6S)-2-methyl-6-[[3-(3-piperazin-1-ylphenyl)azetidin-1-yl]methyl]morpholin-4-yl]quinoline-8-carbonitrile]
11 | 8.05 | Cc1ccc(N2C[C@H](CN3CCN(c4ccnc(N5CCN[C@@H](C)C5)n4)CC3)O[C@H](C)C2)c2nccnc12 [Example 127, (2R,6S)-2-methyl-6-[[4-[2-[(3S)-3-methylpiperazin-1-yl]pyrimidin-4-yl]piperazin-1-yl]methyl]-4-(8-methylquinoxalin-5-yl)morpholine]
12 | 9.00 | Cc1cc(N2CCNCC2)nc(N2CCN(C[C@H]3CN(c4ccc(C#N)c5nccnc45)C[C@@H](C)O3)CC2)n1 [Example 114, 8-[(2R,6S)-2-methyl-6-[[4-(4-methyl-6-piperazin-1-yl-pyrimidin-2-yl)piperazin-1-yl]methyl]morpholin-4-yl]quinoxaline-5-carbonitrile]
13 | 7.85 | [2H]c1ccc2c(N3C[C@H](CN4CC(c5cnc(N6CC(C)(N)C6)cc5C)C4)O[C@H](C)C3)ccc(C#N)c2n1 [Example 145, 5-[(2S,6R)-2-[[3-[6-(3-amino-3-methyl-azetidin-1-yl)-4-methyl-3-pyridyl]azetidin-1-yl]methyl]-6-methyl-morpholin-4-yl]-2-deuterio-quinoline-8-carbonitrile]
14 | 7.85 | [2H]c1ccc2c(N3C[C@H](CN4CC(c5cnc(N6C[C@@H](N)[C@H](OC)C6)cc5C)C4)O[C@H](C)C3)ccc(C#N)c2n1 [Example 146, 5-[(2S,6R)-2-[[3-[6-[(3R,4R)-3-amino-4-methoxy-pyrrolidin-1-yl]-4-methyl-3-pyridyl]azetidin-1-yl]methyl]-6-methyl-morpholin-4-yl]-2-deuterio-quinoline-8-carbonitrile]
15 | 8.70 | COC1CCN(c2nccc(N3CCN(C[C@H]4CN(c5ccc(C#N)c6ncccc56)C[C@@H](C)O4)CC3)n2)CC1N (stereo partly drawn) [Example 109, 5-[(2S,6R)-2-[[4-[2-(3-amino-4-methoxy-1-piperidyl)pyrimidin-4-yl]piperazin-1-yl]methyl]-6-methyl-morpholin-4-yl]quinoline-8-carbonitrile]
16 | 9.00 | CO[C@H]1CN(c2nc(C)cc(N3CCN(C[C@H]4CN(c5ccc(C#N)c6nccnc56)C[C@@H](C)O4)CC3)n2)C[C@@H]1N [Example 106, 8-[(2S,6R)-2-[[4-[2-[(3S,4S)-3-amino-4-methoxy-pyrrolidin-1-yl]-6-methyl-pyrimidin-4-yl]piperazin-1-yl]methyl]-6-methyl-morpholin-4-yl]quinoxaline-5-carbonitrile]
17 | 9.00 | Cc1cc(N2C[C@@H](N)[C@@H](F)C2)nc(N2CCN(C[C@H]3CN(c4ccc(C#N)c5nccnc45)C[C@@H](C)O3)CC2)n1 [Example 115, 8-[(2S,6R)-2-[[4-[4-[(3R,4S)-3-amino-4-fluoro-pyrrolidin-1-yl]-6-methyl-pyrimidin-2-yl]piperazin-1-yl]methyl]-6-methyl-morpholin-4-yl]quinoxaline-5-carbonitrile]
18 | 9.00 | CO[C@H]1CN(c2nccc(N3CCN(C[C@H]4CN(c5ccc(C#N)c6nccnc56)C[C@@H](C)O4)CC3)n2)C[C@@H]1N [Example 99, 8-[(2S,6R)-2-[[4-[2-[(3S,4S)-3-amino-4-methoxy-pyrrolidin-1-yl]pyrimidin-4-yl]piperazin-1-yl]methyl]-6-methyl-morpholin-4-yl]quinoxaline-5-carbonitrile]
